The source of these data is patent US11174464B2, “Method for preparing osteoblasts and osteoblast inducer” (KYOTO PREFECTURAL PUBLIC UNIVERSITY CORPORATION, priority 2014, dated 2021).

The subject of assay [1] is normal human dermal fibroblast (HDF) strain. Kind of assay: Alizarin Red S staining of calcified bone matrix in fibroblasts cultured in induction medium. The settings on record: for Alizarin Red S staining intensity (OD 550-650 nm), ability to produce calcified matrix: 28 days (FIG. 10); for Alizarin Red S staining images and intensity (OD 550-650 nm), ability to produce calcified matrix: 28 days (FIG. 19).

Assay [2] concerns human alkaline phosphatase (ALP) gene. Kind of assay: Real-time RT-PCR of ALP mRNA in cultured HDF. In kind it is cell-based. The settings on record: 10% FBS induction medium, 28 days, relative to normal human fibroblasts = 1 (FIG. 13). How it is done:
Then, total RNA was collected from the cells using ISOGEN II, and cDNA was synthesized using ReverTra Ace qPCR RT Master Mix. Real-time PCR Master Mix, TaqMan probes, specific primers, and cDNA were mixed, and real-time RT-PCR was performed using an AB7300 Real-Time PCR System to quantify the mRNA of Runx2, osteocalcin (OC), and alkaline phosphatase (ALP) genes. […] Further, RNA was harvested from human osteoblasts, and the same analysis was performed.
The culture was performed as in “2-1” above by adding the stated compounds.
Then, total RNA was collected from the cells using ISOGEN II, and cDNA was synthesized using ReverTra Ace qPCR RT Master Mix. Real-time PCR Master Mix, and a TaqMan probe and primers specific to a human alkaline phosphatase (ALP) gene were added, and real-time RT-PCR was performed using an AB7300 Real-Time PCR System. Furthermore, total RNA was extracted from osteoblasts from normal human bone, and analysis was performed in a similar manner.
Furthermore, total RNA was extracted from osteoblasts from normal human bone, and analysis was performed in a similar manner.
Twenty-eight days after the culture, the mRNA expression of ALP gene in the cells in each well was analyzed by real-time RT-PCR, as in “2-3” above. Furthermore, total RNA was extracted from osteoblasts from normal human bone, and analysis was performed in a similar manner.
A general note: In qPCR the cycle at which signal appears reflects the starting amount.

The test system of a further assay is human Runx2 gene. Kind of assay: Real-time RT-PCR of Runx2 mRNA in cultured HDF. Type of assay: cell-based. Particulars: induction medium, 28 days (FIG. 17).
For assay [3], the system named is Normal human white preadipocytes (HWPs). As to the kind of experiment: Alizarin Red S staining, induction from normal human white preadipocytes. Type of assay: cell-based. The settings on record: induction medium with 10% FBS, 21 days (FIG. 23).
A further assay deals with human osteocalcin (OC). Kind of assay: Real-time RT-PCR of osteocalcin (OC) mRNA in cultured HDF. Type of assay: cell-based. Particulars: 5% human serum induction medium, 28 days (FIG. 16).

Procedure for human Runx2 gene: The culture was performed as in “1” above by adding the stated compounds.
Then, total RNA was collected from the cells using ISOGEN II, and cDNA was synthesized using ReverTra Ace qPCR RT Master Mix. Real-time PCR Master Mix, and a TaqMan probe and primers specific to human Runx2 gene were added, and real-time RT-PCR was performed using an AB7300 Real-Time PCR System.
Procedure for human osteocalcin (OC): The culture was performed as in “2-6” above by adding the stated compounds.
Then, total RNA was collected from the cells using ISOGEN II, and cDNA was synthesized using ReverTra Ace qPCR RT Master Mix. Real-time PCR Master Mix, and a TaqMan probe and primers specific to human osteocalcin (OC) were added, and real-time RT-PCR was performed using an AB7300 Real-Time PCR System.

For the molecule `CC(C)c1c(C(=O)Nc2ccccc2)c(-c2ccccc2)c(-c2ccc(F)cc2)n1CC[C@@H](O)C[C@@H](O)CC(=O)O` [AS, atorvastatin], in assay [1] (induction medium with 10% FBS), the “Alizarin Red S staining intensity (OD 550-650 nm), ability to produce calcified matrix” value is recorded as “induced the ability to produce calcified matrix”. Further, in assay [2], the “ALP mRNA expression by real-time RT-PCR” value was “induced the mRNA expression of ALP gene”. Besides, the “Runx2 mRNA expression by real-time RT-PCR” value (from here on “Runx2 mRNA expression”) in the assay on human Runx2 gene is “induced the mRNA expression of Runx2 gene”.

For the molecule `O=C(O)c1ccc2c(c1)nc(Nc1cccc(Cl)c1)c1ccncc12` [CX-4945], the “Alizarin Red S staining images and intensity (OD 550-650 nm), ability to produce calcified matrix” value in assay [1] is given as “no effect”.

Consider `NC(=O)c1ccc(-c2nc(-c3ccc4c(c3)OCCO4)c(-c3ccccn3)[nH]2)cc1` [D4476, 4-[4-(2,3-dihydro-1,4-benzodioxin-6-yl)-5-(2-pyridinyl)1H-imidazol-2-yl]-benzamide], for which the “Alizarin Red S staining images and intensity (OD 550-650 nm), ability to produce calcified matrix” value in assay [1] is on record as “induced the ability to produce calcified matrix”. Besides, the “Alizarin Red S staining images and intensity, ability to produce calcified matrix” value is listed as “induced a higher ability to produce calcified matrix” in assay [1] (induction medium with 5% human serum, 28 days (FIG. 12)) and “induced the ability to produce calcified matrix” in assay [1] (induction medium with 10% FBS, 28 days (FIG. 11)). Also, the “Alizarin Red S staining intensity (OD 550-650 nm), ability to produce calcified matrix” value in assay [1] (induction medium with 10% FBS) was “induced the ability to produce calcified matrix”. Moreover, in assay [3], the “Alizarin Red S staining images, ability to produce calcified matrix” value is “strongly induced the ability to produce calcified matrix”. In assay [2], the “ALP mRNA expression by real-time RT-PCR” value is on record as “induced the mRNA expression of ALP gene”.

Take `Nc1nccc2c1ncn2[C@@H]1C=C(CO)[C@@H](O)[C@H]1O` [DZNep, 3-deazaneplanocin A]: in assay [1], the “Alizarin Red S staining images and intensity (OD 550-650 nm), ability to produce calcified matrix” value was “induced the ability to produce calcified matrix”.

For the molecule `CC[C@H](C)C(=O)O[C@H]1C[C@@H](C)C=C2C=C[C@H](C)[C@H](CC[C@@H]3C[C@@H](O)CC(=O)O3)[C@H]21` [LS, lovastatin], the “Alizarin Red S staining intensity (OD 550-650 nm), ability to produce calcified matrix” value in assay [1] (induction medium with 10% FBS) is given as “induced the ability to produce calcified matrix”. For the same molecule, in assay [2], the “ALP mRNA expression by real-time RT-PCR” value was “induced the mRNA expression of ALP gene”. Besides, the “Runx2 mRNA expression” value in the assay with human Runx2 gene was “induced the mRNA expression of Runx2 gene”.

Regarding `CC(C)c1nc(N(C)S(C)(=O)=O)nc(-c2ccc(F)cc2)c1/C=C/[C@@H](O)C[C@@H](O)CC(=O)O` [RS, rosuvastatin], in the assay on human osteocalcin (OC), the “osteocalcin (OC) mRNA expression by real-time RT-PCR” value is “induced the mRNA expression of osteocalcin”. The “Alizarin Red S staining intensity (OD 550-650 nm), ability to produce calcified matrix” value in assay [1] (induction medium with 10% FBS) is given as “induced the ability to produce calcified matrix”. Also, the “ALP mRNA expression by real-time RT-PCR” value in assay [2] is on record as “induced the mRNA expression of ALP gene”. The “Runx2 mRNA expression” value in the assay on human Runx2 gene is recorded as “induced the mRNA expression of Runx2 gene”.
